Test results reported in patent publication US20250171437A1 (Agios Pharmaceuticals,Inc., priority 2022, published 2025).

Biological target: T1, human PAH with the R408W mutation (A375 R408W cells) (Homo sapiens, UniProt P00439, R408W)
T1 construct: expressed in transfected cells
T1 sequence (P00439 1-452 R408W): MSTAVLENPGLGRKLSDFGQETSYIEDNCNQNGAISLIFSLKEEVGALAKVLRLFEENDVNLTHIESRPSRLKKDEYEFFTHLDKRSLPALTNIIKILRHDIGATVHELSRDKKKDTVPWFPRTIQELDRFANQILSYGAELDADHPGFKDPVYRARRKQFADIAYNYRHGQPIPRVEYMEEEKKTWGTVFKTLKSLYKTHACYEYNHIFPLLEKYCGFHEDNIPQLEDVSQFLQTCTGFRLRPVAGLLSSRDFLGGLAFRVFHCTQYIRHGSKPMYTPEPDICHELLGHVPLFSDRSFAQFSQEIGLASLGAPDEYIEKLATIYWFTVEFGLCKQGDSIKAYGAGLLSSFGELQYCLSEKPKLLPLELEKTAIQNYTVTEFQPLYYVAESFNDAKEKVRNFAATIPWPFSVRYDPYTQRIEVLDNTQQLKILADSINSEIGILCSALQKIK
Assay: Cell Based Phenylalanine Flux Assay
Details: A375 R408W cells; 24 hrs with compound, then 20 μM sepiapterin and 800 μM 13C9,15N-Phenylalanine for 4 hours; 13C-Tyrosine by LC-MS; average where tested multiple times
Summary of the method: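 LC-MS quantitation of 13C-tyrosine in media gave AC50 values. Stable A375 R408W PAH cells were preincubated 24 h with compound, then fed 800 μM labelled Phe plus 20 μM sepiapterin for 4 h. Dose curves were 10-point, tested in duplicate, averaged over repeat runs.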

Row | AC50 | SMILES
1 | 500 to 1000 nM | O=C(c1nnc(-c2ccc(F)c(F)c2)o1)N1CCc2[nH]cnc2[C@H]1c1nc2cc(F)ccc2o1 [Example 75, (S)-(5-(3,4-difluorophenyl)-1,3,4-oxadiazol-2-yl)(4-(5-fluorobenzo[d]oxazol-2-yl)-6,7-dihydro-1H-imidazo[4,5-c]pyridin-5(4H)-yl)methanone]
2 | 1000 to 5000 nM | O=C(c1nnc(-c2ccc(F)c(F)c2)o1)N1CCc2[nH]cnc2[C@@H]1c1nc2cc(F)ccc2o1 [Example 76, (R)-(5-(3,4-difluorophenyl)-1,3,4-oxadiazol-2-yl)(4-(5-fluorobenzo[d]oxazol-2-yl)-6,7-dihydro-1H-imidazo[4,5-c]pyridin-5(4H)-yl)methanone]
3 | 500 to 1000 nM | Cc1cc(F)ccc1-c1nnc(C(=O)N2CCc3[nH]cnc3[C@H]2c2nc3cc(F)ccc3o2)o1 [Example 77, (S)-(5-(4-fluoro-2-methylphenyl)-1,3,4-oxadiazol-2-yl)(4-(5-fluorobenzo[d]oxazol-2-yl)-6,7-dihydro-1H-imidazo[4,5-c]pyridin-5(4H)-yl)methanone]
4 | 1000 to 5000 nM | Cc1cc(F)ccc1-c1nnc(C(=O)N2CCc3[nH]cnc3[C@@H]2c2nc3cc(F)ccc3o2)o1 [Example 78, (R)-(5-(4-fluoro-2-methylphenyl)-1,3,4-oxadiazol-2-yl)(4-(5-fluorobenzo[d]oxazol-2-yl)-6,7-dihydro-1H-imidazo[4,5-c]pyridin-5(4H)-yl)methanone]
5 | 500 to 1000 nM | CN(C)CCc1cn2ncc(C(=O)N3CCc4[nH]cnc4[C@H]3c3nc4cc(F)ccc4o3)c2cc1Cl [Example 79, (S)-(5-chloro-6-(2-(dimethylamino)ethyl)pyrazolo[1,5-a]pyridin-3-yl)(4-(5-fluorobenzo[d]oxazol-2-yl)-6,7-dihydro-1H-imidazo[4,5-c]pyridin-5(4H)-yl)methanone]
6 | 1000 to 5000 nM | CN(C)CCc1cn2ncc(C(=O)N3CCc4[nH]cnc4[C@@H]3c3nc4cc(F)ccc4o3)c2cc1Cl [Example 80, (R)-(5-chloro-6-(2-(dimethylamino)ethyl)pyrazolo[1,5-a]pyridin-3-yl)(4-(5-fluorobenzo[d]oxazol-2-yl)-6,7-dihydro-1H-imidazo[4,5-c]pyridin-5(4H)-yl)methanone]
7 | 500 to 1000 nM | O=C(c1cnn2cc(-c3ccccn3)ccc12)N1CCc2[nH]cnc2[C@H]1c1nc2cc(F)ccc2o1 [Example 81, (S)-(4-(5-fluorobenzo[d]oxazol-2-yl)-6,7-dihydro-1H-imidazo[4,5-c]pyridin-5(4H)-yl)(6-(pyridin-2-yl)pyrazolo[1,5-a]pyridin-3-yl)methanone]
8 | ≥ 5000 nM | O=C(c1cnn2cc(-c3ccccn3)ccc12)N1CCc2[nH]cnc2[C@@H]1c1nc2cc(F)ccc2o1 [Example 82, (R)-(4-(5-fluorobenzo[d]oxazol-2-yl)-6,7-dihydro-1H-imidazo[4,5-c]pyridin-5(4H)-yl)(6-(pyridin-2-yl)pyrazolo[1,5-a]pyridin-3-yl)methanone]
9 | 1000 to 5000 nM | O=C(c1nnc(-c2ccc(F)cc2F)o1)N1CCc2[nH]cnc2[C@@H]1c1nc2cc(F)ccc2o1 [Example 83, (R)-(5-(2,4-difluorophenyl)-1,3,4-oxadiazol-2-yl)(4-(5-fluorobenzo[d]oxazol-2-yl)-6,7-dihydro-1H-imidazo[4,5-c]pyridin-5(4H)-yl)methanone]
10 | ≤ 500 nM | O=C(c1nnc(-c2ccc(F)cc2F)o1)N1CCc2[nH]cnc2[C@H]1c1nc2cc(F)ccc2o1 [Example 84, (S)-(5-(2,4-difluorophenyl)-1,3,4-oxadiazol-2-yl)(4-(5-fluorobenzo[d]oxazol-2-yl)-6,7-dihydro-1H-imidazo[4,5-c]pyridin-5(4H)-yl)methanone]
11 | ≤ 500 nM | O=C(c1oc(-c2ccccn2)nc1C(F)F)N1CCc2[nH]cnc2[C@H]1c1nc2cc(F)ccc2o1 [Example 85, (S)-(4-(difluoromethyl)-2-(pyridin-2-yl)oxazol-5-yl)(4-(5-fluorobenzo[d]oxazol-2-yl)-6,7-dihydro-1H-imidazo[4,5-c]pyridin-5(4H)-yl)methanone]
12 | 1000 to 5000 nM | O=C(c1oc(-c2ccccn2)nc1C(F)F)N1CCc2[nH]cnc2[C@@H]1c1nc2cc(F)ccc2o1 [Example 86, (R)-(4-(difluoromethyl)-2-(pyridin-2-yl)oxazol-5-yl)(4-(5-fluorobenzo[d]oxazol-2-yl)-6,7-dihydro-1H-imidazo[4,5-c]pyridin-5(4H)-yl)methanone]
13 | 1000 to 5000 nM | Cn1cc(-c2nc(C(F)F)c(C(=O)N3CCc4[nH]cnc4[C@@H]3c3nc4cc(F)ccc4o3)o2)cn1 [Example 87, (R)-(4-(difluoromethyl)-2-(1-methyl-1H-pyrazol-4-yl)oxazol-5-yl)(4-(5-fluorobenzo[d]oxazol-2-yl)-6,7-dihydro-1H-imidazo[4,5-c]pyridin-5(4H)-yl)methanone]
14 | 500 to 1000 nM | Cn1cc(-c2nc(C(F)F)c(C(=O)N3CCc4[nH]cnc4[C@H]3c3nc4cc(F)ccc4o3)o2)cn1 [Example 88, (S)-(4-(difluoromethyl)-2-(1-methyl-1H-pyrazol-4-yl)oxazol-5-yl)(4-(5-fluorobenzo[d]oxazol-2-yl)-6,7-dihydro-1H-imidazo[4,5-c]pyridin-5(4H)-yl)methanone]
15 | 1000 to 5000 nM | O=C(c1nnc(-c2ccc(C(F)(F)F)cc2)o1)N1CCc2[nH]cnc2[C@@H]1c1nc2cc(F)ccc2o1 [Example 89, (R)-(4-(5-fluorobenzo[d]oxazol-2-yl)-6,7-dihydro-1H-imidazo[4,5-c]pyridin-5(4H)-yl)(5-(4-(trifluoromethyl)phenyl)-1,3,4-oxadiazol-2-yl)methanone]
16 | 500 to 1000 nM | O=C(c1nnc(-c2ccc(C(F)(F)F)cc2)o1)N1CCc2[nH]cnc2[C@H]1c1nc2cc(F)ccc2o1 [Example 90, (S)-(4-(5-fluorobenzo[d]oxazol-2-yl)-6,7-dihydro-1H-imidazo[4,5-c]pyridin-5(4H)-yl)(5-(4-(trifluoromethyl)phenyl)-1,3,4-oxadiazol-2-yl)methanone]
17 | 500 to 1000 nM | CN(C)c1ccc2c(C(=O)N3CCc4[nH]cnc4[C@H]3c3nc4cc(F)ccc4o3)cnn2c1 [Example 91, (S)-(6-(dimethylamino)pyrazolo[1,5-a]pyridin-3-yl)(4-(5-fluorobenzo[d]oxazol-2-yl)-6,7-dihydro-1H-imidazo[4,5-c]pyridin-5(4H)-yl)methanone]
18 | ≥ 5000 nM | CN(C)c1ccc2c(C(=O)N3CCc4[nH]cnc4[C@@H]3c3nc4cc(F)ccc4o3)cnn2c1 [Example 92, (R)-(6-(dimethylamino)pyrazolo[1,5-a]pyridin-3-yl)(4-(5-fluorobenzo[d]oxazol-2-yl)-6,7-dihydro-1H-imidazo[4,5-c]pyridin-5(4H)-yl)methanone]
19 | 500 to 1000 nM | O=C(c1ccnn1C(F)F)N1CCc2[nH]cnc2[C@H]1c1nc2cc(F)ccc2o1 [Example 93, (S)-(1-(difluoromethyl)-1H-pyrazol-5-yl)(4-(5-fluorobenzo[d]oxazol-2-yl)-6,7-dihydro-1H-imidazo[4,5-c]pyridin-5(4H)-yl)methanone]
20 | 1000 to 5000 nM | O=C(c1ccnn1C(F)F)N1CCc2[nH]cnc2[C@@H]1c1nc2cc(F)ccc2o1 [Example 94, (R)-(1-(difluoromethyl)-1H-pyrazol-5-yl)(4-(5-fluorobenzo[d]oxazol-2-yl)-6,7-dihydro-1H-imidazo[4,5-c]pyridin-5(4H)-yl)methanone]
